# Experimental data: patent US11504434B2, “Compositions and methods for targeted delivery of therapeutic and/or diagnostic agents” (THE PENN STATE RESEARCH FOUNDATION, priority 2016, dated 2022)
# Tests used:
# 1205Lu cells = test: CCK-8 cell viability, 1205Lu; format: cell-based, human
# Description: (§1) Pharmacological Studies. First, free PLX4032 toxicity and selectivity were confirmed by adding PLX4032 solutions at different concentrations into 96 well plates with THP-1, 1205Lu and WM35 cells separately (cell seeding density=5,000 cells/well). After 24 hrs incubation, the cells were washed with PBS twice and supplemented with 10 μl CCK-8 in 100 μl RPM-1640 medium in each well. After 2 hrs incubation, the absorbance at 450 nm of each well was measured by a micro-plate reader (TECAN infinite M200 PRO) and converted to the cell viability by normalized to control (tissue culture plates). Next, MTP-BPLP-PLA nanoparticles with and without PLX4032 loaded were dispersed in RPMI-1640 medium in various concentrations, followed by incubation with THP-1, 1205lu and WM35 cells (2,000 cells/well) separately in same conditions for 7 days. At last, MTP-BPLP-PLA-PLX4032 loaded THP-1 cells and pristine THP-1 cells were seeded with 1205lu or WM35 cells (2,000 cells/well) together with different ratios for 7 days, respectively. The cell viabilities were tested by CCK-8 assays as well.
# WM35 cells = test: CCK-8 cell viability, WM35; format: cell-based, human
# Description: as §1
# THP-1 cells = test: CCK-8 cell viability, THP-1; format: cell-based; details: free drug, up to 100 μg/ml, 24 hrs
# Description: as §1
# [1] = PLX4032 concentration higher than 5 μg/ml, 24 hrs
structure (smiles),measurement,setting,value
CCCS(=O)(=O)Nc1ccc(F)c(C(=O)c2c[nH]c3ncc(-c4ccc(Cl)cc4)cc23)c1F [PLX4032],free PLX4032 toxicity to 1205Lu,"1205Lu cells; 50 ng/ml, 24 hrs incubation",selectively killed
same,kill of melanomas (1205Lu),1205Lu cells; [1],~100%
same,free PLX4032 toxicity to WM35,"WM35 cells; 50 ng/ml, 24 hrs incubation",selectively killed
same,kill of melanomas (WM35),WM35 cells; [1],~100%
same,THP-1 cell viability reduction,THP-1 cells,no significant viability reduction
